Where “and” joins values, the source holds several entries; their conditions need not be identical. Equal values may be shown once. Entries after “also recorded” stand apart in the source; their conditions may differ.
Assays:
[1] = system: Sprague Dawley rats
Procedure: Toxicological evaluations were performed in both rat and dog as the second species according to the guidance from FDA. […] The animals were administered vehicle or 30, 100, 300 and 1,000 mg/kg by oral gavage for 14 days. […] Separate groups of animals (n = 6/sex/dose) were used for toxicokinetic (TK) analysis. On day 1 and day 14 of drug administration, serial blood samples were collected from 5 min to 24 h from the TK group animals for analytical measurement of the compound. Blood samples were placed on ice immediately after collection and were centrifuged at approximately 8,000 rpm for 6 min at 2–8°C and the resulting plasma were separated and stored in pre-labeled plastic tubes or vials. The amount of compound in the plasma samples were measure using an HPLC method. […] Evaluated parameters included; mortality, clinical signs, body weight, food consumption, urinalysis, hematology, clinical chemistry, gross post mortem examinations, organ weights and histopathological evaluations of selected tissues. At the end of 14-days of treatment, animals were sacrificed and blood collected for serum chemistry, coagulation and hematological analysis, organ weighed and histological analysis performed in select tissue from control and high dose group.

[2] = system: PDE isoforms; test: Phosphodiesterase (PDE) profile (Eurofins); format: biochemical; conditions: 9 isoforms PDE
[3] = Monkey pharmacokinetics; format: in vivo; conditions: data not shown
[4] = system: mammalian cell; test: Chromosomal aberrations, micronucleus test (MNT); format: cell-based
[5] = system: Cl-channel (GABA-gated); conditions: dose response
[6] = system: 211 kinases; test: Kinase profile (Eurofins); format: biochemical
[7] = system: NK2 receptor; conditions: dose response
[8] = system: beagle dogs; test: Serum thyroid hormones in beagle dogs treated for 14 days; format: in vivo
Procedure: (§1) Male and female beagle dogs were received from Beijing Marshall Biotechnology Co., Ltd (Beijing, China) and group housed at Covance (Shanghai, China), except for 5 h each day in stainless steel cages for study-related procedures. […] Blood samples (approximately 1.0 ml) were collected for thyroid hormone analysis on Days 0, prior to dosing, 24 h post dose (prior to second dose on Day 2) and once prior to dosing on Day 14. Blood was collected into serum separator tubes (without anticoagulant), allowed to clot at room temperature, and centrifuged for approximately 10 min in a refrigerated centrifuge at approximately at 3,500 g within 2 h of collection. Serum was harvested and placed in a freezer for subsequent thyroid hormone measurement.

[9] = system: Adenosine A3 receptor; conditions: dose response
[10] = Dog pharmacokinetics; format: in vivo; conditions: 10 mg/kg
[11] = system: immature B6C3F1 mice; test: Superovulation assay in immature mice; format: in vivo, mouse; conditions: 30 and 100 mg/kg, mice receiving low dose rec-hFSH (0.15 IU)
Procedure: Immature SD rats and B6C3F1 mice (both 18–21 day old females) were purchased from Charles-River laboratories (Wilmington, MA, United States and Shanghai, China). All animals were treated in accordance to Chempartner (Shanghai, China) or Embryotech (Haverhill, MA, United States) IACUC approved animal protocols. The animals were provided water and food ad libitum and housed under 12 h dark and 12 h light schedules.
Immature rats and mice were used to investigate the ability of the small molecules to induce follicular development and support ovulation as described elsewhere ([Steelman and Pohley, 1953]) with modifications ([Sriraman et al., 2014]). […] […] The isolated COC’s were treated with hyaluronidase and the total number of ovulated oocytes was determined microscopically.
[…] […] In some experiments, serum was collected from the animals prior to the ovulatory dose of hCG to determine estradiol levels. Plasma concentrations of FSHR-AA were measured during superovulation assays, except for experiments where plasma was collected for estradiol measurements.

[12] = system: beagle dogs; test: 14-day toxicity and toxicokinetics in Beagle dog; format: in vivo
Procedure: as §1

[13] = target: CYP3A4 (Homo sapiens, UniProt P08684); test: Cytochrome P450 inhibition; format: in vitro ADME; conditions: b51 words it as 52% of vehicle
Chain of CYP3A4 (P08684 whole entry): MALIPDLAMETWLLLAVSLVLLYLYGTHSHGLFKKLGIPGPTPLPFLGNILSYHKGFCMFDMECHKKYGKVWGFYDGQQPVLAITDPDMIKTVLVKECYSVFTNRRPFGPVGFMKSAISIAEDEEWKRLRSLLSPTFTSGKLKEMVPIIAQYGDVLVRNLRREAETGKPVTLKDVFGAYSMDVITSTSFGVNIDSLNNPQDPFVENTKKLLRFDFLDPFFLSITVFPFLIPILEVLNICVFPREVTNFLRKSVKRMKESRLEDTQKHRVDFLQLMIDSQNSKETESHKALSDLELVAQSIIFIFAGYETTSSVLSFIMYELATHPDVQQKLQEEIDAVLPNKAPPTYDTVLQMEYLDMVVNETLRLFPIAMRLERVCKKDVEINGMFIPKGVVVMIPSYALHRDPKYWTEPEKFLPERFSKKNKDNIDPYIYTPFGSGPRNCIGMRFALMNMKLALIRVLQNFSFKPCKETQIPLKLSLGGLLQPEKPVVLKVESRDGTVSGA

[14] = female dog, 30 mg/Kg, 0h predosing
[15] = female dog, 100 mg/Kg, 0h predosing
[16] = female dog, 1000 mg/Kg, 0h predosing
[17] = male dog, 30 mg/Kg, 0h predosing
[18] = male dog, 100 mg/Kg, 0h predosing
[19] = male dog, 1000 mg/Kg, 0h predosing

With `COc1cc2c(cc1-c1cnn(CCO)c1)-c1c(c(C(=O)N(C)C(C)(C)C)nn1-c1cc(Cl)cc(Cl)c1)CO2` [TOP5300] the “margin of safety between first significant efficacy (5 mg/kg) and NOAEL (300 mg/kg)” value ([1]; rat) was 60 fold, the “accumulation after 14-days repeated dosing” value ([1]; rat, in vivo) was “not observed” and the “NOAEL, female rat” value ([1]; rat, in vivo, po) was 300 mg/kg. The “NOAEL, male rat” value ([1]; rat, in vivo, po) was 1,000 mg/kg, the “Tmax, Day1” value ([1]; rat, in vivo, po) was 2 to 8 h and the “Tmax, Day14” value ([1]; rat, in vivo, po) was 2 to 8 h. The “mortality, rat” value ([1]; up to 1,000 mg/kg, 14 days) was “all animals survived the duration of the study”, the “PDE profile @ 10 uM” value [2] was “N o si g ni fi cant i nhi bi ti on any” and the “half-life, monkey PK” value [3] was 12.1 h. For the same compound, the “Micronucleus Test (MNT) result” value [4] was “N e g a tiv e; also recorded: inactive”, the “selectivity / safety margin compared to FSHR, Cl-channel (GABA-gated)” value [5] was “over 400 fold” and the “Kinase profile @ 10 uM” value [6] was “N o si g ni fi cant i nhi bi ti on any; also recorded: failed to inhibit activity”. The “selectivity / safety margin compared to FSHR, NK2(h)” value [7] was “over 400 fold”, the “TSH, free T3 or free T4 concentrations over the course of treatment” value ([8]; dog, 14 days) was “No significant difference” and the “Free T3, fold change over vehicle group” value [8, 14] was 0.9 fold. The “Free T4, fold change over vehicle group” value [8, 14] was 1.1 fold, the “TSH, fold change over vehicle group” value [8, 14] was 1.2 fold and the “Free T3, fold change over vehicle group” value ([8]; female dog, 30 mg/Kg, 24h) was 0.8 fold. For the same compound, the “Free T4, fold change over vehicle group” value ([8]; female dog, 30 mg/Kg, 24h) was 1.1 fold, the “TSH, fold change over vehicle group” value ([8]; female dog, 30 mg/Kg, 24h) was 0.9 fold and the “Free T3, fold change over vehicle group” value ([8]; female dog, 30 mg/Kg, Day 14) was 1.0 fold. The “Free T4, fold change over vehicle group” value ([8]; female dog, 30 mg/Kg, Day 14) was 0.8 fold, the “TSH, fold change over vehicle group” value ([8]; female dog, 30 mg/Kg, Day 14) was 1.1 fold and the “Free T3, fold change over vehicle group” value [8, 15] was 1.0 fold. For the same compound, the “Free T4, fold change over vehicle group” value [8, 15] was 1.2 fold, the “TSH, fold change over vehicle group” value [8, 15] was 1.3 fold and the “Free T3, fold change over vehicle group” value ([8]; female dog, 100 mg/Kg, 24h) was 0.9 fold. The “Free T4, fold change over vehicle group” value ([8]; female dog, 100 mg/Kg, 24h) was 1.1 fold, the “TSH, fold change over vehicle group” value ([8]; female dog, 100 mg/Kg, 24h) was 1.0 fold and the “Free T3, fold change over vehicle group” value ([8]; female dog, 100 mg/Kg, Day 14) was 1.1 fold. For the same compound, the “Free T4, fold change over vehicle group” value ([8]; female dog, 100 mg/Kg, Day 14) was 1.1 fold, the “TSH, fold change over vehicle group” value ([8]; female dog, 100 mg/Kg, Day 14) was 1.1 fold and the “Free T3, fold change over vehicle group” value [8, 16] was 1.1 fold. For the same compound, the “Free T4, fold change over vehicle group” value [8, 16] was 1.0 fold, the “TSH, fold change over vehicle group” value [8, 16] was 1.2 fold and the “Free T3, fold change over vehicle group” value ([8]; female dog, 1000 mg/Kg, 24h) was 0.9 fold. For the same compound, the “Free T4, fold change over vehicle group” value ([8]; female dog, 1000 mg/Kg, 24h) was 0.9 fold, the “TSH, fold change over vehicle group” value ([8]; female dog, 1000 mg/Kg, 24h) was 0.8 fold and the “Free T3, fold change over vehicle group” value ([8]; female dog, 1000 mg/Kg, Day 14) was 1.2 fold. The “Free T4, fold change over vehicle group” value ([8]; female dog, 1000 mg/Kg, Day 14) was 0.9 fold, the “TSH, fold change over vehicle group” value ([8]; female dog, 1000 mg/Kg, Day 14) was 0.8 fold and the “Free T3, fold change over vehicle group” value [8, 17] was 1.3 fold. For the same compound, the “Free T4, fold change over vehicle group” value [8, 17] was 1.0 fold, the “TSH, fold change over vehicle group” value [8, 17] was 0.8 fold and the “Free T3, fold change over vehicle group” value ([8]; male dog, 30 mg/Kg, 24h) was 1.3 fold. For the same compound, the “Free T4, fold change over vehicle group” value ([8]; male dog, 30 mg/Kg, 24h) was 1.0 fold, the “TSH, fold change over vehicle group” value ([8]; male dog, 30 mg/Kg, 24h) was 0.9 fold and the “Free T3, fold change over vehicle group” value ([8]; male dog, 30 mg/Kg, Day 14) was 1.3 fold. The “Free T4, fold change over vehicle group” value ([8]; male dog, 30 mg/Kg, Day 14) was 1.0 fold, the “TSH, fold change over vehicle group” value ([8]; male dog, 30 mg/Kg, Day 14) was 1.0 fold and the “Free T3, fold change over vehicle group” value [8, 18] was 1.1 fold. The “Free T4, fold change over vehicle group” value [8, 18] was 0.9 fold, the “TSH, fold change over vehicle group” value [8, 18] was 0.8 fold and the “Free T3, fold change over vehicle group” value ([8]; male dog, 100 mg/Kg, 24h) was 1.1 fold. For the same compound, the “Free T4, fold change over vehicle group” value ([8]; male dog, 100 mg/Kg, 24h) was 0.8 fold, the “TSH, fold change over vehicle group” value ([8]; male dog, 100 mg/Kg, 24h) was 0.9 fold and the “Free T3, fold change over vehicle group” value ([8]; male dog, 100 mg/Kg, Day 14) was 1.1 fold. For the same compound, the “Free T4, fold change over vehicle group” value ([8]; male dog, 100 mg/Kg, Day 14) was 0.9 fold, the “TSH, fold change over vehicle group” value ([8]; male dog, 100 mg/Kg, Day 14) was 1.0 fold and the “Free T3, fold change over vehicle group” value [8, 19] was 1.0 fold. The “Free T4, fold change over vehicle group” value [8, 19] was 0.9 fold, the “TSH, fold change over vehicle group” value [8, 19] was 0.7 fold and the “Free T3, fold change over vehicle group” value ([8]; male dog, 1000 mg/Kg, 24h) was 0.9 fold. For the same compound, the “Free T4, fold change over vehicle group” value ([8]; male dog, 1000 mg/Kg, 24h) was 0.9 fold, the “TSH, fold change over vehicle group” value ([8]; male dog, 1000 mg/Kg, 24h) was 0.9 fold and the “Free T3, fold change over vehicle group” value ([8]; male dog, 1000 mg/Kg, Day 14) was 1.0 fold. The “Free T4, fold change over vehicle group” value ([8]; male dog, 1000 mg/Kg, Day 14) was 1.0 fold, the “TSH, fold change over vehicle group” value ([8]; male dog, 1000 mg/Kg, Day 14) was 0.8 fold and the “selectivity / safety margin compared to FSHR, A3(h)” value [9] was “over 400 fold”. For the same compound, the “Dog PK AUC” value [10] was 8,719 ng*h/ml, the “Dog PK T1/2” value [10] was 9 h and 9.4 h and the “Dog PK F%” value ([10]; oral bioavailability) was 32%. For the same compound, the “follicular growth and ovulation” value [11] was “dose-dependent increases in follicular growth and ovulation”, the “mortality or morbidity, dog” value ([12]; 14 days, up to 1,000 mg/kg) was “no mortality or morbidity occurred” and the “NOAEL, dog” value ([12]; dog, in vivo, po) was 1,000 mg/kg/day.
With `COc1cc(C(N)=O)cc(-c2cc3c(cc2OC)OCc2c(C(=O)N(C)C(C)(C)C)nn(-c4cc(Cl)cc(Cl)c4)c2-3)n1` [TOP5668] the “CYP inh @ 10 µM, CYP3A4 (midazolam)” value [13] was “CYP3A4 (midazolam) = 50.6%”.

— paper PMC7845544 (Frontiers in Pharmacology, 2021)
